ChEMBL document CHEMBL3826974, “Discovery of MK-8718, an HIV Protease Inhibitor Containing a Novel Morpholine Aspartate Binding Group” (ACS Med Chem Lett, 2016)

Legend:
[1] = system: Human immunodeficiency virus 1; experiment: Antiviral activity against HIV-1 infected in human MT4 cells assessed as inhibition of viral infection measured after 72 hrs; format: functional; settings: Human immunodeficiency virus 1, MT4, 72 h
[2] = Oral bioavailability in rat at 10 mg/kg; format: ADME, organism-based; settings: in vivo
[3] = Clearance in rat at 2 mg/kg, iv or 10 mg/kg, po; format: ADME, organism-based; settings: in vivo
Protease = Protease (Human immunodeficiency virus 1, UniProt Q9YQ12); experiment: Inhibition of wild-type HIV1 protease expressed in Escherichia coli assessed as reduction in product formation preincubated for 30 mins followed by addition of Val-Ser-Gln-Asn-(beta-naphtyl)Ala-Pro-Ile-Val as substrate measured after 1 hr
Sequence of Protease (Q9YQ12 whole entry): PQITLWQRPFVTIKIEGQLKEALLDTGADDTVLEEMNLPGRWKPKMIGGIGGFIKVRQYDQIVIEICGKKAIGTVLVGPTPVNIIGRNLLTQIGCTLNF

[4] = Clearance in rat at 1 mg/kg, iv or 5 mg/kg, po; format: ADME, organism-based; settings: in vivo
[5] = Oral bioavailability in rat at 5 mg/kg; format: ADME, organism-based; settings: in vivo
[6] = system: Human immunodeficiency virus; experiment: Inhibition of HIV protease at 1 uM

Row | Structure (SMILES) | bioavailability [2] [%] | clearance [3] [mL/min/kg] | IC50 (Protease) [nM] | clearance [4] [mL/min/kg] | bioavailability [5] [%] | inhibition [6] [%] | IC95 [1] [nM]
1 | N[C@H](C(=O)Nc1cncc(F)c1CC[C@@H]1CN[C@H](COC(=O)NCC(F)(F)F)CO1)[C@@H](c1ccc(F)cc1)c1cccc(F)c1 | 37 | 16 | 2.4 |  |  |  | 66
2 | COC(=O)N[C@H](C(=O)Nc1cccc(F)c1CC[C@@H]1CN[C@H](COC(=O)NCC(F)(F)F)CO1)C(c1ccccc1)c1ccccc1 |  |  | 12 | 36 | 37 |  | 95
3 | COC(=O)N[C@H](C(=O)Nc1cncc(F)c1CC[C@@H]1CN[C@H](COC(=O)NCC(F)(F)F)CO1)C(c1ccccc1)c1ccccc1 |  |  | 3.5 | 11 | 15 |  | 94
4 | N[C@H](C(=O)Nc1cccc(F)c1CC[C@@H]1CN[C@H](COC(=O)NCC(F)(F)F)CO1)[C@@H](c1ccc(F)cc1)c1cc(F)cc(F)c1 | 14 | 22 | 8.2 |  |  |  | 61
5 | COC(=O)N[C@H](C(=O)Nc1cnccc1CC[C@@H]1CN[C@H](COC(=O)NCC(F)(F)F)CO1)C(c1ccccc1)c1ccccc1 |  |  | 14 | 81 | < 5 |  | 330
6 | N[C@H](C(=O)Nc1cccc(F)c1CC[C@@H]1CN[C@H](COC(=O)NCC(F)(F)F)CO1)C(c1ccccc1)c1ccccc1 |  |  | 3.1 |  |  |  | 230
7 | COC(=O)N[C@H](C(=O)NCCCC1CNCCO1)C(c1ccccc1)c1ccccc1 (stereo partly drawn) |  |  |  |  |  | 11 | 
8 | N[C@H](C(=O)Nc1cccc(F)c1CC[C@@H]1CN[C@H](COC(=O)NCC(F)(F)F)CO1)[C@@H](c1ccc(F)cc1)c1cccc(F)c1 | 30 | 45 | 6.4 |  |  |  | 75
9 | COC(=O)N[C@H](C(=O)N[C@@H](Cc1ccccc1)[C@@H](O)CN(Cc1ccc(-c2ccccn2)cc1)NC(=O)[C@@H](NC(=O)OC)C(C)(C)C)C(C)(C)C [ATAZANAVIR] |  |  | 0.04 |  |  |  | 17
10 | N[C@H](C(=O)Nc1cncc(F)c1CC[C@@H]1CN[C@H](COC(=O)NCC(F)(F)F)CO1)[C@@H](c1ccc(F)cc1)c1cc(F)cc(F)c1 |  |  | 2.4 |  |  |  | 130
11 | N[C@H](C(=O)Nc1cncc(F)c1CC[C@@H]1CN[C@H](COC(=O)NCC(F)(F)F)CO1)C(c1ccccc1)c1ccccc1 | 59 | 13 | 9.9 |  |  |  | 150
12 | N[C@H](C(=O)Nc1cncc(F)c1CC[C@@H]1CN[C@H](COC(=O)NCC(F)(F)F)CO1)[C@@H](c1ccc(Cl)cc1)c1cc(F)cc(F)c1 | 25 | 11 | 0.8 |  |  |  | 49

Second part, led by results:

Row | bioavailability [2] [%] | clearance [3] [mL/min/kg] | IC50 (Protease) [nM] | clearance [4] [mL/min/kg] | bioavailability [5] [%] | inhibition [6] [%] | Structure (SMILES) | IC95 [1] [nM]
13 |  |  | 37 | 60 | 33 |  | COC(=O)N[C@H](C(=O)Nc1ccccc1CC[C@@H]1CN[C@H](COC(=O)NC(C)C)CO1)C(c1ccccc1)c1ccccc1 | 190
14 |  |  | 6.1 | 27 | < 5 |  | COC(=O)N[C@H](C(=O)Nc1ccccc1CC[C@@H]1CN[C@H](COC(=O)NCc2ccccc2)CO1)C(c1ccccc1)c1ccccc1 | 200
15 |  |  | 9.7 | 110 | < 5 |  | COC(=O)N[C@H](C(=O)Nc1ccccc1CC[C@@H]1CN[C@H](COC(=O)N[C@@H]2CCc3ccccc32)CO1)C(c1ccccc1)c1ccccc1 | 370
16 |  |  | 3.5 | 87 | < 5 |  | COC(=O)N[C@H](C(=O)Nc1ccccc1CC[C@@H]1CN[C@H](COC(=O)N[C@H]2CCc3ccccc32)CO1)C(c1ccccc1)c1ccccc1 | 63
17 |  |  | 20 | 30 | 16 |  | COC(=O)N[C@H](C(=O)Nc1ccccc1CC[C@@H]1CN[C@H](COC(N)=O)CO1)C(c1ccccc1)c1ccccc1 | 120
18 |  |  | 3.6 | 61 |  |  | COC(=O)N[C@H](C(=O)Nc1ccccc1CC[C@@H]1CN[C@H](COC(=O)NCc2ccccc2F)CO1)C(c1ccccc1)c1ccccc1 | 180
19 |  |  | 3.4 | 45 | 17 |  | COC(=O)N[C@H](C(=O)Nc1ccccc1CC[C@@H]1CN[C@H](COC(=O)NCc2cccc(Cl)n2)CO1)C(c1ccccc1)c1ccccc1 | 150
20 |  |  | 2.4 | 33 | 13 |  | COC(=O)N[C@H](C(=O)Nc1ccccc1CC[C@@H]1CN[C@H](COC(=O)NCc2ccc(Cl)s2)CO1)C(c1ccccc1)c1ccccc1 | 170
21 |  |  | 4.1 | 49 | 47 |  | COC(=O)N[C@H](C(=O)Nc1ccccc1CC[C@@H]1CN[C@H](COC(=O)NCc2ccc(F)cc2)CO1)C(c1ccccc1)c1ccccc1 | 170
22 |  |  | 27 | 36 | 19 |  | COC(=O)N[C@H](C(=O)Nc1ccccc1CC[C@@H]1CN[C@H](COC(=O)NCC(F)(F)F)CO1)C(c1ccccc1)c1ccccc1 | 120
